Molecular target: purified human, His-tagged PRC2 complex (Homo sapiens (Human), UniProt O75530)
Test: Hot Spot HMT assay, inhibition of PRC2 enzymatic activity
Format: biochemical
Conditions: 10 nM PRC2 complex, 1 μM 3H-SAM, core histone H3, 10-point dose-response
In short: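 Methyl transfer from 1 μM tritiated SAM onto 0.05 mg/ml core histone H3, catalysed by 10 nM His/Flag-tagged human PRC2 holoenzyme, was run 1 hr at 30° C after a 20 min compound preincubation. Serial dilutions began at 1.0 μM; product captured on filters and counted.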

Chain of purified human, His-tagged PRC2 complex (O75530 whole entry): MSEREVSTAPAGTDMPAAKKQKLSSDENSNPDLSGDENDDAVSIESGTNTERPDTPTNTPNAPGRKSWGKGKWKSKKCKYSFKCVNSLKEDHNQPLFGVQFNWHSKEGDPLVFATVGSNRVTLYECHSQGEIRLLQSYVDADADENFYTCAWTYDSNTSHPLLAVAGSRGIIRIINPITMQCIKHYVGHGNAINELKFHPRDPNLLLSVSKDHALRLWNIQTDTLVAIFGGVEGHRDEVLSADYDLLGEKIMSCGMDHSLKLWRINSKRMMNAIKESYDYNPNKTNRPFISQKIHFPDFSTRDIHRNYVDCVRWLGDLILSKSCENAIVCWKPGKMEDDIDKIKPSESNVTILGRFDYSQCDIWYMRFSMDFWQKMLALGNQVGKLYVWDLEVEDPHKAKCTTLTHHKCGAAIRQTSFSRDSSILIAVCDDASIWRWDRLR
Chain of purified human, His-tagged PRC2 complex (Q15910 whole entry partner): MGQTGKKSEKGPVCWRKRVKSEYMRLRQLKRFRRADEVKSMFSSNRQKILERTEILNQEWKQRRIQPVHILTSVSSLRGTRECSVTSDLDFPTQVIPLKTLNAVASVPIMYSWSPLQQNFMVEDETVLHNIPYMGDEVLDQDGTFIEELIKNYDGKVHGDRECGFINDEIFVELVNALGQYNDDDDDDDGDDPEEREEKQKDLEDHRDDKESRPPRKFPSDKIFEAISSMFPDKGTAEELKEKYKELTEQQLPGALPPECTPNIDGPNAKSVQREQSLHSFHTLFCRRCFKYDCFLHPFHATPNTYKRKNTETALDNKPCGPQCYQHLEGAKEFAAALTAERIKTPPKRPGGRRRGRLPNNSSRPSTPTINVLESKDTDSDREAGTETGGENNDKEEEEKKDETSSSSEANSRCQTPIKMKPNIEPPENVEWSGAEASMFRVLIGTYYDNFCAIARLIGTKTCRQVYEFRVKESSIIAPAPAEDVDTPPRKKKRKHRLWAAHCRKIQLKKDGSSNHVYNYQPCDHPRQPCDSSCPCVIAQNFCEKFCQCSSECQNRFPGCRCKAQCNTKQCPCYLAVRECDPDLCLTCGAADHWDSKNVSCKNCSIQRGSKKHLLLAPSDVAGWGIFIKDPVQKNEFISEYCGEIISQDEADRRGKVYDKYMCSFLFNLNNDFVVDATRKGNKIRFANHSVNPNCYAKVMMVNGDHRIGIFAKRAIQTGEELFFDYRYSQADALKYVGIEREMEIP
Chain of purified human, His-tagged PRC2 complex (Q15022 whole entry partner): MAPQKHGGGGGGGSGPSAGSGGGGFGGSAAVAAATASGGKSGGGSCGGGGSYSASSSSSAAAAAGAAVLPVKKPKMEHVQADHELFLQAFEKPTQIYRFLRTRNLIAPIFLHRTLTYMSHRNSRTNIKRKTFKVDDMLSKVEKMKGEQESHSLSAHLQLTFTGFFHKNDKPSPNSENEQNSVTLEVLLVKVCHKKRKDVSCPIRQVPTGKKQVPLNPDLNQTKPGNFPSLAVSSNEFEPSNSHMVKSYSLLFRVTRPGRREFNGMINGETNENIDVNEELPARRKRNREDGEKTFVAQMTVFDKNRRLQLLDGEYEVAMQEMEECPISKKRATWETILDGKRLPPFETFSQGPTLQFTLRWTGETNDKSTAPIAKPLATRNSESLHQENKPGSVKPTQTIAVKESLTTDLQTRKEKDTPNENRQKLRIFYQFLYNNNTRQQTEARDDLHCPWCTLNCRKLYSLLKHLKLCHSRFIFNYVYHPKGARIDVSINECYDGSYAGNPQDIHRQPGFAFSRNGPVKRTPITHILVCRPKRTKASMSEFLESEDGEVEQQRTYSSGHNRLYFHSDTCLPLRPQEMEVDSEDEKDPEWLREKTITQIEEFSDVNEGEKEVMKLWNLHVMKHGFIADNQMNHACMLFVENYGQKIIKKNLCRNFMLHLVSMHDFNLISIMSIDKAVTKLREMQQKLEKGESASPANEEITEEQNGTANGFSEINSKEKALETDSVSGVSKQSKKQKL
Chain of purified human, His-tagged PRC2 complex (Q6ZN18 whole entry partner): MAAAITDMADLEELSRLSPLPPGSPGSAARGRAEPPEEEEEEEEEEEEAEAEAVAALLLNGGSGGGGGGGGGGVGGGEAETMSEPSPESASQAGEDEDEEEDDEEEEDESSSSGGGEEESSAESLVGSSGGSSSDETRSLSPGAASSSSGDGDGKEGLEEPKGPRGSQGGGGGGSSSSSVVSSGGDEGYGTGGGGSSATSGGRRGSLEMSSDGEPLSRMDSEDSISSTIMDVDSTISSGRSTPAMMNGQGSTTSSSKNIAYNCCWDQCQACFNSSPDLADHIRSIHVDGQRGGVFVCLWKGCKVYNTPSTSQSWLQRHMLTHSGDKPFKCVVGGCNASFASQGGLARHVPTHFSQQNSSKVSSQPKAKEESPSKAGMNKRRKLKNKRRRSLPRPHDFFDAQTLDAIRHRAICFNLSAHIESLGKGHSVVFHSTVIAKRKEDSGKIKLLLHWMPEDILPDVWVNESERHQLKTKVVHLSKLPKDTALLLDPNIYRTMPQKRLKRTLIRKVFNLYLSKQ
Chain of purified human, His-tagged PRC2 complex (Q09028 whole entry partner): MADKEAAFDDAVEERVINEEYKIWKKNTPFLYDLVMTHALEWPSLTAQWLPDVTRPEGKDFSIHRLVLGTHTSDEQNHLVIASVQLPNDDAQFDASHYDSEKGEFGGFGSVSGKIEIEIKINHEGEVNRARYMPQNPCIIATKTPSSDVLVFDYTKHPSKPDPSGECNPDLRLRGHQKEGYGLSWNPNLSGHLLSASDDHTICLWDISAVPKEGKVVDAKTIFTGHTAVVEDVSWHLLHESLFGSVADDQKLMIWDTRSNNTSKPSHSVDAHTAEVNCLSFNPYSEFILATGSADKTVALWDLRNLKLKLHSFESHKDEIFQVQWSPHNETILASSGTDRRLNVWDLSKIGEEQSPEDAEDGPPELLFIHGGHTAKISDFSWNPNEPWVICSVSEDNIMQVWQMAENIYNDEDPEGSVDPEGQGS

SMILES | IC50
N#Cc1cn2c(NCc3c(F)ccc4c3CCO4)ncc(C3CCOCC3)c2n1 [Example 141, 5-(((5-fluoro-2,3-dihydrobenzofuran-4-yl)methyl)amino)-8-(tetrahydro-2H-pyran-4-yl)imidazo[1,2-c]pyrimidine-2-carbonitrile] | > 500 nM
Cc1nc(-c2cnc(NCc3c(F)ccc4c3CCO4)n3cc(C#N)nc23)c(C)s1 [Example 145, 8-(2,5-dimethylthiazol-4-yl)-5-(((5-fluoro-2,3-dihydrobenzofuran-4-yl)methyl)amino)imidazo[1,2-c]pyrimidine-2-carbonitrile] | 100 to 500 nM
N#Cc1cn2c(NCc3c(F)ccc4c3CCO4)ncc(-c3ccccn3)c2n1 [Example 146, 5-(((5-fluoro-2,3-dihydrobenzofuran-4-yl)methyl)amino)-8-(pyridin-2-yl)imidazo[1,2-c]pyrimidine-2-carbonitrile] | 100 to 500 nM
N#Cc1cn2c(NCc3c(F)ccc4c3CCO4)ncc(-c3ccc(CO)nc3)c2n1 [Example 147, 5-(((5-fluoro-2,3-dihydrobenzofuran-4-yl)methyl)amino)-8-(6-(hydroxymethyl)pyridin-3-yl)imidazo[1,2-c]pyrimidine-2-carbonitrile] | 100 to 500 nM
CN(C)Cc1c(F)cc(-c2cnc(NCc3c(F)ccc4c3CCO4)n3cc(C#N)nc23)cc1F [Example 149, 8-(4-((dimethylamino)methyl)-3,5-difluorophenyl)-5-(((5-fluoro-2,3-dihydrobenzofuran-4-yl)methyl)amino)imidazo[1,2-c]pyrimidine-2-carbonitrile] | 100 to 500 nM
Cc1nc(CN(C)C)ccc1-c1cnc(NCc2c(F)ccc3c2CCO3)n2cc(C#N)nc12 [Example 152, 8-(6-((dimethylamino)methyl)-2-methylpyridin-3-yl)-5-(((5-fluoro-2,3-dihydrobenzofuran-4-yl)methyl)amino)imidazo[1,2-c]pyrimidine-2-carbonitrile] | 100 to 500 nM
N#Cc1cn2c(NCc3c(F)ccc4c3CCO4)ncc(-c3ccn(CC4CCCO4)n3)c2n1 (stereo not drawn) [Example 153, 5-(((5-fluoro-2,3-dihydrobenzofuran-4-yl)methyl)amino)-8-(1-((tetrahydrofuran-2-yl)methyl)-1H-pyrazol-3-yl)imidazo[1,2-c]pyrimidine-2-carbonitrile] | 100 to 500 nM
N#Cc1cn2c(NCc3c(F)ccc4c3CCO4)ncc(-c3cnn(CC4CCOC4)c3)c2n1 (stereo not drawn) [Example 154, 5-(((5-fluoro-2,3-dihydrobenzofuran-4-yl)methyl)amino)-8-(1-((tetrahydrofuran-3-yl)methyl)-1H-pyrazol-4-yl)imidazo[1,2-c]pyrimidine-2-carbonitrile] | 100 to 500 nM
Cn1cccc(-c2cnc(NCc3c(F)ccc4c3CCO4)n3cc(C#N)nc23)c1=O [Example 156, 5-(((5-fluoro-2,3-dihydrobenzofuran-4-yl)methyl)amino)-8-(1-methyl-2-oxo-1,2-dihydropyridin-3-yl)imidazo[1,2-c]pyrimidine-2-carbonitrile] | 100 to 500 nM
COCCOc1ccc(-c2cnc(NCc3c(F)ccc4c3CCO4)n3cc(C#N)nc23)cn1 [Example 158, 5-(((5-fluoro-2,3-dihydrobenzofuran-4-yl)methyl)amino)-8-(6-(2-methoxyethoxy)pyridin-3-yl)imidazo[1,2-c]pyrimidine-2-carbonitrile] | 100 to 500 nM
CN1CCc2cc(-c3cnc(NCc4c(F)ccc5c4CCO5)n4cc(C#N)nc34)ccc2C1 [Example 159, 5-(((5-fluoro-2,3-dihydrobenzofuran-4-yl)methyl)amino)-8-(2-methyl-1,2,3,4-tetrahydroisoquinolin-6-yl)imidazo[1,2-c]pyrimidine-2-carbonitrile] | 100 to 500 nM
CCOP(=O)(OCC)c1ccc(-c2cnc(NCc3c(F)ccc4c3CCO4)n3cc(C#N)nc23)cc1 [Example 164, diethyl (4-(2-cyano-5-(((5-fluoro-2,3-dihydrobenzofuran-4-yl)methyl)amino)imidazo[1,2-c]pyrimidin-8-yl)phenyl)phosphonate] | < 100 nM

More lines, now with the values ahead:

IC50 | SMILES
< 100 nM | CC(C)Oc1ccc(-c2cnc(NCc3c(F)ccc4c3CCO4)n3cc(C#N)nc23)cn1 [Example 133, 5-(((5-fluoro-2,3-dihydrobenzofuran-4-yl)methyl)amino)-8-(6-isopropoxypyridin-3-yl)imidazo[1,2-c]pyrimidine-2-carbonitrile]
100 to 500 nM | N#Cc1cn2c(NCc3c(F)ccc4c3CCO4)ncc(-c3cnc(N)c(C(F)(F)F)c3)c2n1 [Example 134, 8-(6-amino-5-(trifluoromethyl)pyridin-3-yl)-5-(((5-fluoro-2,3-dihydrobenzofuran-4-yl)methyl)amino)imidazo[1,2-c]pyrimidine-2-carbonitrile]
< 100 nM | N#Cc1cn2c(NCc3c(F)ccc4c3CCO4)ncc(-c3ccc(N4CCCCC4)nc3)c2n1 [Example 135, 5-(((5-fluoro-2,3-dihydrobenzofuran-4-yl)methyl)amino)-8-(6-(piperidin-1-yl)pyridin-3-yl)imidazo[1,2-c]pyrimidine-2-carbonitrile]
100 to 500 nM | Cc1nc(N2CCN(C)CC2)ccc1-c1cnc(NCc2c(F)ccc3c2CCO3)n2cc(C#N)nc12 [Example 136, 5-(((5-fluoro-2,3-dihydrobenzofuran-4-yl)methyl)amino)-8-(2-methyl-6-(4-methylpiperazin-1-yl)pyridin-3-yl)imidazo[1,2-c]pyrimidine-2-carbonitrile]
< 100 nM | Cc1ncccc1-c1cnc(NCc2c(F)ccc3c2CCO3)n2cc(C(N)=O)nc12 [Example 137, 5-(((5-fluoro-2,3-dihydrobenzofuran-4-yl)methyl)amino)-8-(2-methylpyridin-3-yl)imidazo[1,2-c]pyrimidine-2-carboxamide]
< 100 nM | Cc1nc(N2CCN(C)CC2)ccc1-c1cnc(NCc2c(F)ccc3c2CCO3)n2cc(C(N)=O)nc12 [Example 138, 5-(((5-fluoro-2,3-dihydrobenzofuran-4-yl)methyl)amino)-8-(2-methyl-6-(4-methylpiperazin-1-yl)pyridin-3-yl)imidazo[1,2-c]pyrimidine-2-carboxamide]
< 100 nM | N#Cc1cn2c(NCc3c(F)ccc4c3CCO4)ncc(-c3cccnn3)c2n1 [Example 142, 5-(((5-fluoro-2,3-dihydrobenzofuran-4-yl)methyl)amino)-8-(pyridazin-3-yl)imidazo[1,2-c]pyrimidine-2-carbonitrile]
< 100 nM | Cn1nncc1-c1cnc(NCc2c(F)ccc3c2CCO3)n2cc(C#N)nc12 [Example 143, 5-(((5-fluoro-2,3-dihydrobenzofuran-4-yl)methyl)amino)-8-(1-methyl-1H-1,2,3-triazol-5-yl)imidazo[1,2-c]pyrimidine-2-carbonitrile]
< 100 nM | Cn1nc(C2CC2)cc1-c1cnc(NCc2c(F)ccc3c2CCO3)n2cc(C#N)nc12 [Example 144, 8-(3-cyclopropyl-1-methyl-1H-pyrazol-5-yl)-5-(((5-fluoro-2,3-dihydrobenzofuran-4-yl)methyl)amino)imidazo[1,2-c]pyrimidine-2-carbonitrile]
< 100 nM | N#Cc1cn2c(NCc3c(F)ccc4c3CCO4)ncc(-c3cccnc3CO)c2n1 [Example 148, 5-(((5-fluoro-2,3-dihydrobenzofuran-4-yl)methyl)amino)-8-(2-(hydroxymethyl)pyridin-3-yl)imidazo[1,2-c]pyrimidine-2-carbonitrile]
< 100 nM | N#Cc1cn2c(NCc3c(F)ccc4c3CCO4)ncc(-c3ccc(CN4CC(O)C4)cc3)c2n1 [Example 150, 5-(((5-fluoro-2,3-dihydrobenzofuran-4-yl)methyl)amino)-8-(4-((3-hydroxyazetidin-1-yl)methyl)phenyl)imidazo[1,2-c]pyrimidine-2-carbonitrile]
< 100 nM | N#Cc1cn2c(NCc3c(F)ccc4c3CCO4)ncc(-c3ccc(CN4CCC(O)C4)cc3)c2n1 (stereo not drawn) [Example 151, 5-(((5-fluoro-2,3-dihydrobenzofuran-4-yl)methyl)amino)-8-(4-((3-hydroxypyrrolidin-1-yl)methyl)phenyl)imidazo[1,2-c]pyrimidine-2-carbonitrile]
< 100 nM | Cc1cc(-c2cnc(NCc3c(F)ccc4c3C(O)CO4)n3cc(C#N)nc23)n(C)n1 (stereo not drawn) [Example 155, 8-(1,3-dimethyl-1H-pyrazol-5-yl)-5-(((5-fluoro-3-hydroxy-2,3-dihydrobenzofuran-4-yl)methyl)amino)imidazo[1,2-c]pyrimidine-2-carbonitrile]
< 100 nM | Cn1nc(C(=O)O)cc1-c1cnc(NCc2c(F)ccc3c2CCO3)n2cc(C#N)nc12 [Example 157, 5-(2-cyano-5-(((5-fluoro-2,3-dihydrobenzofuran-4-yl)methyl)amino)imidazo[1,2-c]pyrimidin-8-yl)-1-methyl-1H-pyrazole-3-carboxylic acid]
< 100 nM | CN1CCCC1c1ccc(-c2cnc(NCc3c(F)ccc4c3CCO4)n3cc(C#N)nc23)cc1 (stereo not drawn) [Example 160, 5-(((5-fluoro-2,3-dihydrobenzofuran-4-yl)methyl)amino)-8-(4-(1-methylpyrrolidin-2-yl)phenyl)imidazo[1,2-c]pyrimidine-2-carbonitrile]
< 100 nM | COCCOc1ccc(-c2cnc(NCc3c(F)ccc4c3CCO4)n3cc(C#N)nc23)cc1 [Example 161, 5-(((5-fluoro-2,3-dihydrobenzofuran-4-yl)methyl)amino)-8-(4-(2-methoxyethoxy)phenyl)imidazo[1,2-c]pyrimidine-2-carbonitrile]
< 100 nM | N#Cc1cn2c(NCc3c(F)ccc4c3CCO4)ncc(-c3ccc(C4CCCO4)cc3)c2n1 (stereo not drawn) [Example 162, 5-(((5-fluoro-2,3-dihydrobenzofuran-4-yl)methyl)amino)-8-(4-(tetrahydrofuran-2-yl)phenyl)imidazo[1,2-c]pyrimidine-2-carbonitrile]
< 100 nM | CN(C)CCc1ccc(-c2cnc(NCc3c(F)ccc4c3CCO4)n3cc(C#N)nc23)cc1 [Example 163, 8-(4-(2-(dimethylamino)ethyl)phenyl)-5-(((5-fluoro-2,3-dihydrobenzofuran-4-yl)methyl)amino)imidazo[1,2-c]pyrimidine-2-carbonitrile]

Reference: patent publication US20240398811A1, “PRC2 INHIBITORS FOR USE IN TREATING BLOOD DISORDERS” (ORIC Pharmaceuticals, Inc., priority 2021, published 2024)
